# Entries after “also recorded” stand apart in the source; their conditions may differ.
# Target: T1, CRM-1 export receptor (Mus musculus, UniProt Q6P5F9)
# T1 construct: NIH-3T3 cells were transfected with the indicated GFP reporter constructs; endogenous in cells; host or cells: NIH-3T3
# Assay: Leptomycin B Nuclear Export Signal Assay (GFP reporter localization by confocal microscopy)
# Format: cell-based
# Settings: NIH-3T3 cells, 24 hrs post-transfection, 200 nM Leptomycin B for 2 hrs
# Protocol: The Leptomycin B Nuclear Export Signal Assay used NIH-3T3 cells grown on glass coverslips (Fisher) and transfected using Lipofectamine 2000 according to the manufacturers protocol. Cells 24 hrs post-transfection were treated with 200 nM Leptomycin B (Sigma) or DMSO (Mock) for 2 hrs. Cells were fixed with 3% PFA and mounted using ProLong (Molecular Probes) mounting medium. Confocal microscopy was performed on a Zeiss LSM 510 confocal system using an Axiovert 100 M microscope and a Plan/Apochromat 100×/Oil objective.
# T1 sequence (Q6P5F9 whole entry): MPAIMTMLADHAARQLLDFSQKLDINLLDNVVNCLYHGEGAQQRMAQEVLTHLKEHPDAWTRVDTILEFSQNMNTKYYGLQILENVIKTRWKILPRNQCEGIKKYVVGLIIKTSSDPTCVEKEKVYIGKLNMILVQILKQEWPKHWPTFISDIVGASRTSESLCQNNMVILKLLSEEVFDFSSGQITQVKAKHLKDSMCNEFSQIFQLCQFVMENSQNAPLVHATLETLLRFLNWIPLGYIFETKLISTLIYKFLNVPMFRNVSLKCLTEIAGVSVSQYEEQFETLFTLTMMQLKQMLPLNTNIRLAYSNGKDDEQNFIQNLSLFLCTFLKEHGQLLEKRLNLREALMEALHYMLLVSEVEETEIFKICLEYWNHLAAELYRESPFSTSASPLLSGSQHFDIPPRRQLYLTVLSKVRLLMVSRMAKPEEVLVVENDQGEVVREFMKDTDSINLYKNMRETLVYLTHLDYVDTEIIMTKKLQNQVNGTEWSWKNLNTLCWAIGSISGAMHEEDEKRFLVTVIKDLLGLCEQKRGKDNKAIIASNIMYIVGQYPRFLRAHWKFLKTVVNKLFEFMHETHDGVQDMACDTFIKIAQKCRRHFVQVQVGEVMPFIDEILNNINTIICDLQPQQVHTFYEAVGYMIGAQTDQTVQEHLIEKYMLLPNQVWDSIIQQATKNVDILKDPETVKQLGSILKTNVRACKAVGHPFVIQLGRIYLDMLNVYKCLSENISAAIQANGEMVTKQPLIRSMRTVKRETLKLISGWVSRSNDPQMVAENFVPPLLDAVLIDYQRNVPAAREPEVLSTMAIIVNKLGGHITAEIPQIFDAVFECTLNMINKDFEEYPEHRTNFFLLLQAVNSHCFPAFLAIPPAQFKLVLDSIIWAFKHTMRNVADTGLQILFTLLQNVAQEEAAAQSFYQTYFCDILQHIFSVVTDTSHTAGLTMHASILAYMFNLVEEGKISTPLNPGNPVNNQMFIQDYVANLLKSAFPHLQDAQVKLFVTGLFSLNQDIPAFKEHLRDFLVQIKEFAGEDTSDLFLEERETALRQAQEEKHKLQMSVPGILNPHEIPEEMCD
compound,measurement,value
"CCC(=C/[C@H](C)C/C=C/C(C)=C/[C@@H](C)C(=O)[C@@H](C)[C@H](O)[C@@H](C)C/C(C)=C/C(=O)O)/C=C/[C@@H]1OC(=O)C=C[C@@H]1C [LMB, Leptomycin B]",effect on localization of GFP or NLS-GFP,unaffected
same,effect on nuclear exclusion (cytoplasmic localization) of Htt 1-17-NLS-GFP,unaffected; also recorded: no effect
same,effect on nuclear exclusion of control NES-GFP,quite sensitive; also recorded: efficiently reversed

# — patent US20040235733A1, “Methods and reagents for reducing polyglutamine toxicity” (priority 2003, published 2004)
